Data taken from patent publication US10221152B2 (priority 2013, dated 2019).
Where a name gives a salt, the structure may show the parent alone.

Columns and labels:
[1] = test system: H1N1 T.R. (Tamiflu-resistant variant of H1N1 viral strain); type: cell-based, Influenza A virus
[2] = test system: Tamiflu-resistant H1N1 viral strain rWSN^H274Y; type: cell-based, Influenza A virus

COc1c(C)c2c(c(O)c1C/C=C(\C)CCC(=O)OCCN1CCOCC1)C(=O)OC2 [MPM, 2-morpholinoethyl(E)-6-(1,3-dihydro-4-hydroxy-6-methoxy-7-methyl-3-oxo-5-isobenzofuranyl)-4-methyl-4-hexenoate]
Minimal Inhibitory Concentration (MIC), H1N1 T.R. [1]: 0.39 µg/mL

COc1c(C)c2c(c(O)c1C/C=C(\C)CCC(=O)OCCN1CCOCC1)C(=O)OC2 [MPM-N, mycophenolate mofetil hydrochloride]
concentration required to inhibit rWSN^H274Y (immunofluorescence staining) [2]: 5 µM

NC(=O)c1ncn([C@@H]2O[C@H](CO)[C@@H](O)[C@H]2O)n1 [Ribavirin, reference compound]
concentration required to inhibit rWSN^H274Y (immunofluorescence staining) [2]: 100 µM
